Results on 15 compounds are retold here after patent US9440960B2, “Substituted oxetanes and their use as inhibitors of cathepsin C” (Boehringer Ingelheim International GmbH, priority 2014, dated 2016).

SMILES strings stand for the structures.

The term IC50 denotes the concentration needed to halve the response being measured.

This experiment addresses T1, recombinant human DPPI (Cathepsin C) (Homo sapiens, UniProt P53634).
T1 construct: purchased Prozymex
Put plainly: Inhibition of Human DPPI (Cathepsin C). The note with it: substrate Gly-Arg-AMC 50 μM, MES buffer pH 6.0, 30 min at room temperature, fluorescence readout. The experiment is classed as biochemical. An excerpt: Inhibition of Human DPPI (Cathepsin C)
Materials: Microtiterplates (Optiplate-384 F) were purchased from PerkinElmer (Prod.No. 10 6007270). The substrate Gly-Arg-AMC was from Biotrend (Prod.-No. 808756 Custom peptide).
Bovine serum albumin (BSA; Prod.No. A3059) and Dithiothreitol (DTT; Prod.No D0632) were from Sigma. TagZyme buffer was from Riedel-de-Haen (Prod.-No. 04269), NaCl was from Merck (Prod.-No. 1.06404.1000) and morpholinoethane sulfonic acid (MES), was from Serva (Prod.-No.
29834). The DPP1 inhibitor Gly-Phe-DMK was purchased from MP Biomedicals 15 (Prod.-No. 03DK00625). The recombinant human DPPI was purchased from Prozymex. All other materials were of highest grade commercially available.
The following buffers were used: MES buffer: 25 mM MES, 50 mM NaCl, 5 mM DTT, adjusted to pH 6.0, containing 0.1% BSA; TAGZyme Buffer: 20 mM NaH2PO4, 150 mM NaCl adjusted to pH […]
Assay conditions: The recombinant human DPPI was diluted in TAGZyme buffer to 1 U/ml (38.1 μg/ml, respectively), and then activated by mixing in a 1:2 ratio with a Cysteamine aqueous solution (2 mM) and incubating for 5 min at room temperature.
Five uL test compound (final concentration 0.1 nM to 100 μM) in aqua bidest 5 (containing 4% DMSO, final DMSO concentration 1%) were mixed with 10 μL of DPPI in MES buffer (final concentration 0.0125 ng/μL) and incubated for 10 min. Then, 5 μL of substrate in MES buffer (final concentration 50 μM) were added. The microtiter plates were then incubated at room temperature for 30 min. Then, the reaction was stopped by adding 10 μL of Gly-Phe-DMK in 10 MES-buffer (final concentration 1 μM). The fluorescence in the wells was determined using a Molecular Devices SpectraMax M5 Fluorescence Reader (Ex 360 nm, Em 460 nm) or an Envision Fluorescence Reader (Ex 355 nm, Em 460 nm).
Each assay microtiter plate contained wells with vehicle controls (1% DMSO in bidest+0.075% 15 BSA) as reference for non-inhibited enzyme activity (100% Ctl; high values) and wells with inhibitor (Gly-Phe-DMK, in bidest+1% DMSO+0.075% BSA, final concentration 1 μM) as controls for background fluorescence (0% Ctl; low values).
The analysis of the data was performed by calculating the percentage of fluorescence in the presence of test compound in comparison to the fluorescence of the vehicle control after 20 subtracting the background fluorescence using the following formula: (RFU(sample)−RFU(background))*100/(RFU(control)−RFU(background)) […]
Data from these calculations were used to generate IC50 values for inhibition of DPPI, respectively.

T1 sequence (P53634 231-394 limits assumed): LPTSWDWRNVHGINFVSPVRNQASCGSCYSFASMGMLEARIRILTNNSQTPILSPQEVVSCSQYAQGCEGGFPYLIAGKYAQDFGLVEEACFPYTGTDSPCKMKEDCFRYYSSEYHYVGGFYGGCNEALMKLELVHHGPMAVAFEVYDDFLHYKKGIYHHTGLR
T1 sequence (P53634 395-463 limits assumed): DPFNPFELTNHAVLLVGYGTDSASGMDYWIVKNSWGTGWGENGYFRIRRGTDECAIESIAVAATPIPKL
T1 sequence (P53634 25-143 limits assumed): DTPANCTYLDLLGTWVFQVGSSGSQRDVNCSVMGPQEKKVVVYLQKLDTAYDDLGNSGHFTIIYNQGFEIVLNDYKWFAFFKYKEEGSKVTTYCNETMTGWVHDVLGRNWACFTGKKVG

For `N#C[C@H](Cc1ccc(N2CCN(C3COC3)CC2)cc1F)NC(=O)[C@H]1N[C@@H]2CC[C@H]1C2` [Example 1, (1S,2S,4R)—N-[(1S)-1-cyano-2-[2-fluoro-4-[4-(oxetan-3-yl)piperazin-1-yl]phenyl]ethyl]-3-azabicyclo[2.2.1]heptane-2-carboxamide], the IC50 worked out at 11.7 nM. Then `N#C[C@H](Cc1ccc(N2C3CCC2CN(C2COC2)C3)cc1F)NC(=O)[C@H]1N[C@@H]2CC[C@H]1C2` [Example 2], with 14.4 nM; and `N#C[C@H](Cc1ccc(N2CC3(C2)CN(C2COC2)C3)cc1F)NC(=O)[C@H]1N[C@@H]2CC[C@H]1C2` [Example 3], with 21.6 nM; and `N#C[C@H](Cc1ccc(C2=CCN(C3COC3)CC2)cc1F)NC(=O)[C@H]1N[C@@H]2CC[C@H]1C2` [Example 4, (1S,2S,4R)—N-[(1S)-1-cyano-2-[2-fluoro-4-[1-(oxetan-3-yl)-3,6-dihydro-2H-pyridin-4-yl]phenyl]ethyl]-3-azabicyclo[2.2.1]heptane-2-carboxamide], with 5.6 nM. Turning to `N#C[C@H](Cc1ccc(N2CC3CN(C4COC4)CC3C2)cc1F)NC(=O)[C@H]1N[C@@H]2CC[C@H]1C2` (stereo partly drawn) [Example 5, (1S,2S,4R)—N-[(1S)-1-cyano-2-[2-fluoro-4-[5-(oxetan-3-yl)-1,3,3a,4,6,6a-hexahydropyrrolo[3,4-c]pyrrol-2-yl]phenyl]ethyl]-3-azabicyclo[2.2.1]heptane-2-carboxamide], the IC50 was found to be 16.5 nM. For `N#C[C@H](Cc1ccc(N2CC3CCN(C4COC4)C3C2)cc1F)NC(=O)[C@H]1N[C@@H]2CC[C@H]1C2` (stereo partly drawn) [Example 6], the IC50 came to 13.5 nM.

For the compound `N#C[C@H](Cc1ccc(N2CCC3CN(C4COC4)CC32)cc1F)NC(=O)[C@H]1N[C@@H]2CC[C@H]1C2` (stereo partly drawn) [Example 7], the IC50 was 9.9 nM. Then `N#C[C@H](Cc1ccc(N2CCC3C2CCN3C2COC2)cc1F)NC(=O)[C@H]1N[C@@H]2CC[C@H]1C2` (stereo partly drawn) [Example 8], with 35.5 nM; and `N#C[C@H](Cc1ccc(N2CCC3C2CCN3C2COC2)cc1F)NC(=O)[C@H]1N[C@@H]2CC[C@H]1C2` (stereo partly drawn) [Example 9], with 17.6 nM; and `N#C[C@H](Cc1ccc(C2CCN(C3COC3)CC2)cc1F)NC(=O)[C@H]1N[C@@H]2CC[C@H]1C2` [Example 10, (1S,2S,4R)—N-[(1S)-1-cyano-2-[2-fluoro-4-[1-(oxetan-3-yl)-4-piperidyl]phenyl]ethyl]-3-azabicyclo[2.2.1]heptane-2-carboxamide], with 60.1 nM. The result for `N#C[C@H](Cc1ccc(C2CCCN(C3COC3)C2)cc1F)NC(=O)[C@H]1N[C@@H]2CC[C@H]1C2` (stereo partly drawn) [Example 11] reads 52.7 nM; that for `N#C[C@H](Cc1ccc(C2CCN(C3COC3)C2)cc1F)NC(=O)[C@H]1N[C@@H]2CC[C@H]1C2` (stereo partly drawn) [Example 12], 29.4 nM; that for `N#C[C@H](Cc1ccc(C2CC3CN(C4COC4)CC3C2)cc1F)NC(=O)[C@H]1N[C@@H]2CC[C@H]1C2` (stereo partly drawn) [Example 13], 79.7 nM. Then `N#C[C@H](Cc1ccc(C2CC3CN(C4COC4)CC3C2)cc1F)NC(=O)[C@H]1N[C@@H]2CC[C@H]1C2` (stereo partly drawn) [Example 14], with 29.3 nM; and `N#C[C@H](Cc1ccc(N2CCN(C3COC3)CC2)cc1F)NC(=O)C12CCC(CC1)CN2` [Example 15, N-[(1S)-1-cyano-2-[2-fluoro-4-[4-(oxetan-3-yl)piperazin-1-yl]phenyl]ethyl]-2-azabicyclo[2.2.2]octane-1-carboxamide], with 66.5 nM.
